# Results reported in patent publication US20050250715A1, “Remedy” (priority 2002, published 2005).
# Tests used:
# [1] = tested on: NGF; assay: Enhancing activity for NGF production in L-M cells (NGF in culture medium by enzyme immunoassay); type: cell-based, murine; conditions: 20 hours; for Amount of NGF Production (%): control = 100%
# Description: (2) The enhancing activity for NGF production of the compound a was assayed. L-M cells (ATCC CCL-1.2) from murine fibroblasts were suspended in an M199 medium (manufactured by Bio Whittaker) containing 0.5% bactopeptone (manufactured by Gibco) so as to have a concentration of 1.5×10^5 cells/mL. The suspension was put in a 96 well plate in an amount of 0.1 mL each well, and the cells were aseptically cultured. After culturing the cells for 3 days, the medium was removed therefrom, and exchanged with an M199 medium containing 0.5% bovine serum albumin (manufactured by Sigma). The compound a was added thereto, and the cells were cultured for 20 hours. After the termination of the culture, the concentration of NGF in the culture medium was assayed by an enzyme immunoassay method (NGF Emax Immuno Assay System, manufactured by Promega). The experiment was carried out twice, and an average value was taken. […] The amount of NGF production of the control was 0.739 ng/mL. As to the control, the concentration in the culture medium was determined in the same manner except that the compound a was not added. It is the same as that of the following examples.
# [2] = tested on: mouse; assay: Oral toxicity in mouse; type: in vivo; conditions: mouse (male, 6-week old), orally administered at 1000 mg per kg body weight
smiles,measurement,setting,value
"CC1(C)[C@@H](O[C@H]2O[C@H](C(=O)O)[C@@H](O)[C@H](O)[C@H]2O[C@@H]2O[C@H](C(=O)O)[C@@H](O)[C@H](O)[C@H]2O)CC[C@]2(C)[C@H]3C(=O)C=C4[C@@H]5C[C@@](C)(C(=O)O)CC[C@]5(C)CC[C@@]4(C)[C@]3(C)CC[C@@H]12 [Glycyrrhizin, glycyrrhizin, reference compound]",enhancing activity for NGF production (result in words),[1],has enhancing activity for NGF production
same,Amount of NGF Production (%),[1]; Table 4: Concentration of Sample 0.25 mM,113.0%
same,Amount of NGF Production (%),[1]; Table 4: Concentration of Sample 0.5 mM,204.3%
same,Amount of NGF Production (%),[1]; Table 4: Concentration of Sample 1.0 mM,261.0%
same,toxicity,[2],no toxicity is found
